Data: patent publication US8581005B2, “Mitochondrial inhibitors to treat human disease” (Albert Einstein College of Medicine of Yeshiva University, priority 2009, dated 2013)
Read-outs that look alike come from different tables or passages of the source.

Legend:
[1] = tested on: Sacchromyces cerevisiae strain J47D; assay: In vitro cell proliferation assay (yeast proliferation); assay type: cell-based; design: key to Inhibition of yeast proliferation: (+) Complete inhibition (no proliferation); (−) no inhibition (normal proliferation); (+/−) partial inhibition; (i) compound insoluble
Method: (§1) Sacchromyces cerevisiae strain J47D in log phase growth, was plated in 96 well dishes at 1.5×10^4 cells/well in YEPD media. Magmas inhibitors were diluted in DMSO and added at various concentrations (range 0 mM to 1 mM) to each well in triplicate at a final DMSC concentration of 1%. Samples were cultured at 30° C. in a Bioscreen C MBR incubator (Growth Curves USA, Piscataway, N.J.) and optical density (OD) readings were measured every 30 minutes for the indicated time in the plots. Cell proliferation data was analyzed and plotted using Microsoft Excel. Standard deviations were smaller than 2% of the mean OD value (n=3), and each experiment was performed at least two independent times.
Reduced Magmas function caused by siRNA knockdown or by mutations in Magmas causes growth inhibition and cell cycle arrest. To assay whether the compounds were active, their ability to inhibit yeast proliferation was measured. The results obtained in yeast are equivalent to those found in mammalian cells in part because the human homolog is fully functional in yeast and the target region is identical across all eukaryotic species.

K562 = assay: Viability of human cells, trypan blue dye exclusion; assay type: cell-based; design: key: (+) Viable; (−) dead; (+/−) partial viability; details: 48 hrs
Method: (§2) Cell lines derived from human hematological malignancies and glioblastoma multiforme, and human umbilical vascular endothelial cells (HUVEC) were cultured in standard media with the concentrations of 9 indicated in Table 3. Viable cells were scored by trypan blue dye exclusion at 48 hrs. The HUVEC population consisted of a pool of primary cells isolated from the blood vessels of 4 umbilical cords. Each cell type was tested in duplicate in at least three independent experiments.

Toledo = assay: as above; assay type: cell-based; design: key: (+) Viable; (−) dead; (+/−) partial viability; details: 48 hrs
Method: as §2

U87 = assay: as above; assay type: cell-based; design: key: (+) Viable; (−) dead; (+/−) partial viability; details: 48 hrs
Method: as §2

Pfeiffer = assay: as above; assay type: cell-based; design: key: (+) Viable; (−) dead; (+/−) partial viability; details: 48 hrs
Method: as §2

U118 = assay: as above; assay type: cell-based; design: key: (+) Viable; (−) dead; (+/−) partial viability; details: 48 hrs
Method: as §2

Karpas = assay: as above; assay type: cell-based; design: key: (+) Viable; (−) dead; (+/−) partial viability; details: 48 hrs
Method: as §2

purified mouse Magmas = target: T1, purified mouse Magmas (Mus musculus, UniProt Q9CQV1); assay: Binding to Magmas by fluorescence emission spectrum (tyrosine); details: murine Magmas, FIG. 3B; read-out: calculated Kd
T1 sequence (Q9CQV1 1-125): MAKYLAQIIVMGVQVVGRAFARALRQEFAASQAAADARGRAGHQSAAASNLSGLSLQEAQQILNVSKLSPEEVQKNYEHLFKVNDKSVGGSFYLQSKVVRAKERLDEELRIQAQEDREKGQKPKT
Method: (§3) The binding of 9 to both purified yeast and mouse Magmas was evaluated. The fluorescence spectrum of tryptophan was measured for the binding to the yeast target and the fluorescence spectrum of tyrosine was measured for the binding to the murine target. The spectral shift observed at varying concentrations of 9 was used to determine the binding constant (FIG. 3).

HUVEC = assay: Viability of human cells, trypan blue dye exclusion; assay type: cell-based; design: key to viability of human cells: (+) Viable; (−) dead; (+/−) partial viability; details: for viability of human cells: HUVEC, 48 hrs
Method: as §2

HeLa cells = assay: Mitotracker Red mitochondrial activity; assay type: cell-based; details: 6 μM for 12 hours
Method: HeLa cells were treated with 6 μM Compound 9 for 12 hours. The cells were then incubated with Mitotracker Red (100 nM) for 15 minutes, washed, fixed with formaldehyde, and examined by fluorescent microscopy. […] This confirms that the invention affects mitochondrial activity.

purified yeast Magmas = target: T2, purified yeast Magmas (Saccharomyces cerevisiae, UniProt P42949); assay: Binding to Magmas by fluorescence emission spectrum (tryptophan)
T2 sequence (P42949 1-149): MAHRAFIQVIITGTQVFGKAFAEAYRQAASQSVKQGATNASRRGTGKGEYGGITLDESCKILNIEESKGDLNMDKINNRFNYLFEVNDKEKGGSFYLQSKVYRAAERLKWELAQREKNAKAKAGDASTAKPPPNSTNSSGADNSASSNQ
Method: as §3

[2] = tested on: yeast strains containing several different Magmas mutations expressed on a plasmid; assay: Yeast proliferation assay with Magmas mutations and over-expression; assay type: cell-based
From the text: Mutations in Magmas were introduced by error prone PCR and the changes were identified by sequencing. Only genes with a single amino acid change were further analyzed. The genes encoding the mutations were spliced into plasmid pRS315 containing the selectable […] marker (leu) and transfected into yeast where the wt genomic copy was replaced by a his cassette and the essential Magmas activity was maintained by wt Magmas in the plasmid pRS316 (ura). The plasmid containing the wt Magmas gene was lost by selection in media containing FOA, resulting in yeast strains only expressing the mutant gene. Total yeast protein from each of the strains was separated by SDS-PAGE, and transferred to nitrocellulose membranes. The membranes were sequentially incubated with rabbit anti-Magmas antibody, HRP conjugated goat anti-rabbit antibody and chemiluminescence reagent. The signal was captured with a Fujifilm LAS-3000 Imager and the data analyzed with ImageGage software.
as §1
All of these stains express similar levels of Magmas protein, which is approximately 4 fold higher than the haploid control (Wt genomic).

Structure (SMILES): O=[N+]([O-])c1ccc2c(c1)C=CC(c1ccccc1)O2 (stereo not drawn) [Compound 5]
- Inhibition of yeast proliferation ([1]; 1 μM): −
- Inhibition of yeast proliferation ([1]; 10 μM): −
- Inhibition of yeast proliferation ([1]; 100 μM): −
- Inhibition of yeast proliferation ([1]; 1 mM): −
- Effect on yeast proliferation ([1]; all concentrations): inactive

Structure (SMILES): Brc1ccc2c(c1)C=CC(c1ccccc1)O2 (stereo not drawn) [Compound 6]
- Inhibition of yeast proliferation ([1]; 1 μM): −
- Effect on yeast proliferation ([1]; 10 μM): partially inhibitory
- Inhibition of yeast proliferation ([1]; 10 μM): +/−
- Inhibition of yeast proliferation ([1]; 100 μM): +
- Inhibition of yeast proliferation ([1]; 1 mM): +

Structure (SMILES): c1ccc(C2=Nc3ccccc3OC2)cc1 [Compound 1]
- Effect on yeast proliferation ([1]; doses up to and including 6 μM): not effective

Structure (SMILES): O=[N+]([O-])c1ccc2c(c1)N=C(c1ccccc1)CO2 [Compound 2]
- Effect on yeast proliferation ([1]; doses up to and including 6 μM): not effective

Structure (SMILES): CCCCCCCCC1C=Cc2cc([N+](=O)[O-])ccc2O1 (stereo not drawn) [Compound 8]
- Inhibition of yeast proliferation ([1]; 1 μM): −
- Inhibition of yeast proliferation ([1]; 10 μM): −
- Inhibition of yeast proliferation ([1]; 100 μM): +
- Inhibition of yeast proliferation ([1]; 1 mM): i

Structure (SMILES): CCC1=C(C)/C(=C/c2ccc(C(=O)NC(=N)N)cc2)CCC1(C)C [Compound 9]
- viability of human cells (K562; K562, 2 um): +/−
- viability of human cells (K562; K562, 4 um): +/−
- viability of human cells (K562; K562, 6 um): −
- viability of human cells (K562; K562, 8 um): −
- viability of human cells (K562; K562, 12 um): −
- viability of human cells (K562; K562, 16 um): −
- viability of human cells (K562; K562, 20 um): −
- viability of human cells (K562; K562, 24 um): −
- viability of human cells (Toledo; 2 um): +/−
- viability of human cells (Toledo; 4 um): +/−
- viability of human cells (Toledo; 6 um): −
- viability of human cells (Toledo; 8 um): −
- viability of human cells (Toledo; 12 um): −
- viability of human cells (Toledo; 16 um): −
- viability of human cells (Toledo; 20 um): −
- viability of human cells (Toledo; 24 um): −
- viability of human cells (U87; U87, 2 um): +/−
- viability of human cells (U87; U87, 4 um): +/−
- viability of human cells (U87; U87, 6 um): −
- viability of human cells (U87; U87, 8 um): −
- viability of human cells (U87; U87, 12 um): −
- viability of human cells (U87; U87, 16 um): −
- viability of human cells (U87; U87, 20 um): −
- viability of human cells (U87; U87, 24 um): −
- viability of human cells (Pfeiffer; 2 um): +/−
- viability of human cells (Pfeiffer; 4 um): +/−
- viability of human cells (Pfeiffer; 6 um): −
- viability of human cells (Pfeiffer; 8 um): −
- viability of human cells (Pfeiffer; 12 um): −
- viability of human cells (Pfeiffer; 16 um): −
- viability of human cells (Pfeiffer; 20 um): −
- viability of human cells (Pfeiffer; 24 um): −
- viability of human cells (U118; U118, 2 um): +/−
- viability of human cells (U118; U118, 4 um): −
- viability of human cells (U118; U118, 6 um): −
- viability of human cells (U118; U118, 8 um): −
- viability of human cells (U118; U118, 12 um): −
- viability of human cells (U118; U118, 16 um): −
- viability of human cells (U118; U118, 20 um): −
- viability of human cells (U118; U118, 24 um): −
- viability of human cells (Karpas; 2 um): +/−
- viability of human cells (Karpas; 4 um): +/−
- viability of human cells (Karpas; 6 um): +/−
- viability of human cells (Karpas; 8 um): −
- viability of human cells (Karpas; 12 um): −
- viability of human cells (Karpas; 16 um): −
- viability of human cells (Karpas; 20 um): −
- viability of human cells (Karpas; 24 um): −
- Kd (purified mouse Magmas): 36 µM
- viability of human cells (HUVEC; 2 um): +
- viability of human cells (HUVEC; 4 um): +
- viability of human cells (HUVEC; 6 um): +
- viability of human cells (HUVEC; 8 um): +
- viability of human cells (HUVEC; 12 um): +
- viability of human cells (HUVEC; 16 um): +
- viability of human cells (HUVEC; 20 um): +/−
- viability of human cells (HUVEC; 24 um): −
- sensitivity of tumor cell lines relative to normal primary cells (HUVEC) (HUVEC; tumor cell lines vs HUVEC, viability at 48 hrs): 4 to 5 fold
- Mitotracker Red intensity (HeLa cells): reduced
- Kd (purified yeast Magmas; yeast Magmas, FIG. 3A, read-out: calculated Kd): 33 µM
- Kd (purified yeast Magmas; yeast target, read-out: binding constant): 34 ± 2 µM
- Inhibition of yeast proliferation ([1]; 1 μM): −
- Effect on yeast proliferation ([1]; 4 μM): significant and reproducible inhibition
- lengthening of the time to half maximal growth ([1]; 4 μM): 1.8 times
- Effect on yeast proliferation ([1]; 10 μM): fully inhibited growth
- Inhibition of yeast proliferation ([1]; 10 μM): +
- Inhibition of yeast proliferation ([1]; 100 μM): +
- Inhibition of yeast proliferation ([1]; 1 mM): +
- Sensitivity of yeast to Compound 9 ([2]; Magmas A104S): increased sensitivity
- Sensitivity of yeast to Compound 9 ([2]; Magmas N84T vs Wt plasmid): increased resistance
- Sensitivity of yeast to Compound 9 ([2]; over-expression of Magmas: Wt plasmid vs Wt genomic): reduces sensitivity

Structure (SMILES): Clc1ccc2c(c1)C=CC(c1ccccc1)O2 (stereo not drawn) [Compound 4]
- Inhibition of yeast proliferation ([1]; 1 μM): −
- Inhibition of yeast proliferation ([1]; 10 μM): −
- Inhibition of yeast proliferation ([1]; 100 μM): +
- Inhibition of yeast proliferation ([1]; 1 mM): i

Structure (SMILES): Oc1cccc2c1OC(c1ccccc1)C=C2 (stereo not drawn) [Compound 7]
- Effect on yeast proliferation ([1]; doses up to and including 6 μM): not effective

Structure (SMILES): Clc1ccc2c(c1)N=C(c1ccccc1)CO2 [Compound 3]
- Effect on yeast proliferation ([1]; doses up to and including 6 μM): not effective
